We go through 3 molecules from article PMC7603451, “A novel human pluripotent stem cell-based assay to predict developmental toxicity” (Archives of Toxicology, 2020).

In series [1] the test system is BIONi010-C hiPSC embryoid bodies differentiating into cardiomyocytes. In words: PluriBeat assay, beat score of EBs, BIONi010-C. The procedure: (§1) Cardiac differentiation was performed as published (Fischer et al. [2018]) with slight modifications. Briefly, hiPSC were harvested from culture dishes with good colony morphology (day 5–6 after split) by removing medium and adding Gibco™ TrypLE™ Select (Thermo Fisher Scientific) for 1–2 min. As soon as single cells appeared at the borders of the colonies, TrypLE was removed by suction and the cells harvested as single cells in mTeSR-ROCK (mTeSR1 with 10 µM Y27632 dihydrochloride). Cells were counted and 5 × 10^4 cells/ml were seeded at 100 µl per well into a 96-well Polystyrene Conical Bottom MicroWell™ Plate (249,952, Thermo Fisher Scientific). The plates were centrifuged at 500g for 5 min at room temperature. After 20 h of incubation, EBs had formed (one EB per well) and cardiac differentiation was induced by exchanging 80 µl medium to D0 medium. All medium recipes are included in supplementary Table 1. After 24 ± 2 h, 80 µl medium was exchanged to TS medium. After 24 ± 2 h, 80 µl medium were exchanged to Wnt medium. After 24 ± 2 h, 80 µl medium was exchanged with TS medium. Three days later (72 ± 2 h), 60 µl medium was exchanged with 80 µl fresh TS medium added per well. The following day beating of the cardiomyocyte containing EBs was scored.
(§2) Test compounds were added to the specific daily differentiation medium before medium exchange on the 96-well plates. Vehicle was kept constant across the plates at 0.1%. Thirty-two EBs were exposed to each concentration in each experiment. On the last day of the assay, the beat score was determined as follows: Each EB was observed until contraction was seen, though for a maximum of 10 s. If no movement was seen, the beat score 0 was given. If the entire area of the sphere contracted, a beat score of 2 was given. Everything in between was given a score of 1.
(§3) The beat score for each condition was determined as the average beat score of the 32 EBs. All experiments were performed in biological triplicates if not stated otherwise. For gene expression analysis and compound testing, data from 32 EBs (= 32 wells each containing one EB) were analyzed for a given concentration or time point.
(§4) IC25 values were defined as absolute IC25 values giving the concentration that inhibits the beat score by 25%. […] Calculations were based on the beat score of > 90 EBs from three independent experiments per cell line.
(§5) The following analysis was performed in the statistical program R-studio: To analyze the impact of the test compounds on the beat score, we performed an ordinal logistic regression using the polr package in R with beat score and concentration as factors on n ≥ 90 EBs from three biological replicates. The LOEC was defined as the lowest observable effect concentration of test compound causing an effect with a p value < 0.05.

The test system of series [2] is IMR90-1 hiPSC embryoid bodies differentiating into cardiomyocytes. Kind of series: PluriBeat assay, beat score of EBs, IMR90-1. The procedure:
as §1, §2, §3, §4, §5

Series [3] relates to IMR90-4 hiPSC embryoid bodies differentiating into cardiomyocytes. Kind of series: PluriBeat assay, beat score of EBs, IMR90-4. The conditions noted are these: for effect on beat score: up to maximum concentration tested. The procedure:
as §1, §2, §3, §4, §5

The test system of series [4] is BIONi010-C hiPSC grown in monolayer. In words: Cytotoxicity, CellTiter-Glo 2.0 ATP-based cell viability assay. Set-up: species or system human. The conditions noted are these: for concentration showing cytotoxicity: human, 48 h. The procedure:
Before initiating tests on cardiomyocyte differentiation for test chemicals, cell viability was determined to ascertain that any further testing was done at non-cytotoxic concentrations. On the day of the experiment, 50 µl/well hESC-Qualified Matrigel (354,277, Corning) was added to flat-bottom 96-well plates (Corning) and incubated at 37 °C and 95% humidity until use. BIONi010-C hiPSC were harvested from a […] by Gibco™ TrypLE™ Select (Thermo Fisher Scientific) and a single-cell suspension was prepared in mTeSR™1 serum-free medium (STEMCELL Technologies). Matrigel was removed from plates and a final concentration of 1 × 10^4 cells/well was added. After 24 h, mTESR1 medium was exchanged for fresh medium. Cell were exposed to the test chemicals after another 24 h and for 48 h in total with a vehicle kept constant across the plates at 0.1%. […] Assay reagent (100 µl/well) was added, plates were left on a shaker table for 2 min and successively for 10 min at room temperature. Lysates were transferred to white plates and luminescence was measured (EnSpire, Perkin Elmer).

The subject of series [5] is BIONi010-C EBs. In words: EB volume after exposure, BIONi010-C. The series is classed as cell-based, human. The procedure: (§6) The average of 32 EBs per condition was analyzed. […] EB size was analysed using a one-way ANOVA without matching and multiple comparisons with Dunnett’s correction.
The test system of series [6] is IMR90-1 EBs. In words: EB volume after exposure, IMR90-1. The settings on record: for concentration with effect on EB volume: IMR90-1, last day of assay. It is filed as cell-based, human. The procedure:
as §6

For series [7], the system named is IMR90-4 EBs. Kind of series: EB volume after exposure, IMR90-4. It is filed as cell-based, human. The conditions noted are these: for concentration with effect on EB volume: IMR90-4, last day of assay. The procedure: as §6
The subject of series [8] is EBs made from the three cell lines BIONi010-C, IMR90-1, and IMR90-4. In words: PluriBeat assay, statements without a named cell line. The procedure:
as §2
For analysis of the EB size, the EBs were imaged with a light microscope after assessing the beat score. The plates were left at room temperature to decrease the beat rate before imaging, thereby decreasing the risk of false small outliers due to contractions. The images were further analyzed with ImageJ, where the diameter of the individual EBs was measured manually. From this, the volume of each EB was calculated and the average of the controls on each plate set to 100% to calculate the volume (%) for the exposed EBs. The average of 32 EBs per condition was analyzed.

For series [9], the system named is mouse ESCs. The settings on record: cited from earlier work.
Series [10] deals with hiPSC. The conditions noted are these: cited from earlier work.
Series [11] concerns hESCs. Set-up: method as in Kameoka et al. [2014]. The settings on record: hESC monolayer, 3 days; ref Kameoka et al. [2014]; cited from earlier work.
The conditions of series [12]: cited from earlier work.
For series [13], the system named is in vitro assays for developmental toxicity. The settings on record: previous in vitro developmental toxicity studies, cited from earlier work.
The test system of series [14] is rat embryos. The arrangement: method as in Rettie et al. [1986]. The settings on record: ex vivo rat embryos, gestation day 10; ref Rettie et al. [1986]; cited from earlier work.
The mark [15] stands for this setting: IMR90-4, beat score on last day of assay, lowest concentration with p < 0.05.
Where [16] appears, read: human, 8 days (beat score read on the last day of the assay).

pIC50: −log10 of the molar value. Where two headings read alike, the source gives them in different places.

Turning to `Fc1ccc([C@]2(Cn3cncn3)O[C@H]2c2ccccc2Cl)cc1` (racemic) [Epoxiconazole, epoxiconazole], the LOEC in series [1] (BIONi010-C, beat score on last day of assay, lowest concentration with p < 0.05) amounted to 5 µM; in series [2] (IMR90-1, beat score on last day of assay, lowest concentration with p < 0.05) it was 1.3 µM; in series [3] (setting [15]), 1.3 µM. Moreover, the “concentration at which EBs stopped beating” value in series [2] (human, 7 days) is 2.5 µM; in [3] (human, 7 days), 2.5 µM. Moreover, the concentration showing cytotoxicity in [4] is reported as at least 50 µM. Moreover, the “effect on EB volume” value in series [5] is on record as “significantly smaller spheres”; in series [6] it was “non-significant trend”; in [7], “significantly smaller spheres”. In addition, the “lowest concentration decreasing the beating (LOEC)” value in series [8] (beat score, cell line not stated) was determined as 1.3 µM. Besides, the “proportion of beating cardiac EBs” value in series [8] (setting [16]) is about 0%. The “embryotoxicity in the mEST” value in [9] is on record as “weakly embryotoxic”. Further, the pIC50 in series [9] (mEST based on mouse ESCs, ref Dreisig et al. [2013]) was 4.47.

As for `O=C1CCC(N2C(=O)c3ccccc3C2=O)C(=O)N1` (stereo not shown) [Thalidomide, thalidomide], the LOEC in series [1] (human, 7 days) is reported as 2.3 µM; in [2] (human, 7 days) it was 2.3 µM; in series [3] (setting [15]) it was “no LOEC could be determined”; in series [3] (human, 7 days) it was over 36 µM. Besides, in series [3] (IMR90-4), the “effect on beat score” value is reported as “non-significant trend”. For the same molecule, the “IC25 (absolute inhibition concentration of 25%) with 95% confidence intervals” value in series [3] (human, 7 days) is reported as over 36 µM. Besides, in [4] (BIONi010-C monolayer, 48 h exposure, 25, 50, 100 and 200 µM), the effect on viability result was “did not reduce viability in any of the concentrations tested”. Moreover, the concentration showing cytotoxicity in series [4] is reported as over 200 µM. Besides, in series [5] (BIONi010-C, last day of assay), the “concentration with significant decrease in EB volume” value is reported as at least 2.3 µM. Moreover, the “concentration with effect on EB volume” value in [6] was at least 2.3 µM; in series [7], at least 18 µM. Moreover, the “decrease of EB volume” value in [8] (human, 7 days, 2.3 µM) is given as about 60%. Moreover, the “lowest concentration decreasing the beating (LOEC)” value in [8] (setting [16]) turned out to be 2.3 µM. For the same molecule, the pIC50 in series [10] (original EST protocol, ref Aikawa et al. [2014]) was 3.35; in [10] (ref Aikawa [2020]), 5.26; in [11], 6.30. The “clinical plasma concentrations for therapeutic use” value in [12] (human, ref Chung et al. [2004], Kodama et al. [2009]) was 1 to 6 µM. Moreover, in series [12] (regular dose for pregnant women of 200 mg, ref Teo et al. [2004]), the internal exposure is on record as 4.7 µM.

For the molecule `CCCC(CCC)C(=O)O` [Valproic acid, valproic acid], the “effect on beat score” value in series [1] (BIONi010-C, up to maximum concentration tested) was “did not lead to a significant decrease in beat score”; in series [2] (IMR90-1, up to maximum concentration tested) it was “did not lead to a significant decrease in beat score”; in series [3] (IMR90-4), “did not lead to a significant decrease in beat score”. Further, the “IC25 (absolute inhibition concentration of 25%) with 95% confidence intervals” value is listed as over 300 µM in series [1] (human, 7 days); over 300 µM in series [2] (human, 7 days); over 300 µM in series [3] (human, 7 days). In addition, the LOEC in [1] (human, 7 days) is over 300 µM; in series [2] (human, 7 days), over 300 µM; in series [3] (human, 7 days), over 300 µM. For the same molecule, the reduction of viability entry in series [4] (BIONi010-C monolayer, 48 h exposure, 400 µM) is “more than 20%”. Besides, the concentration showing cytotoxicity result in series [4] is “above 300 µM”. For the same molecule, the “effect on EB volume” value in series [5] (BIONi010-C, last day of assay) is on record as “did not lead to apparent effects”. Further, the “concentration with effect on EB volume” value is 200 µM in [6] and 300 µM in series [7]. The pIC50 in [13] (ref Aikawa et al. [2014], Shinde et al. [2016]) is 3.00 to 3.06; in [13] (ref Uibel et al. [2010], Palmer et al. [2013], Kameoka et al. [2014], Aikawa [2020]), 3.69 to 5.52. The therapeutic serum levels entry in [12] (human, ref Dasgupta [2016]) is on record as “around 700 µM”. In addition, in series [14], the “concentration with toxic effects” value is on record as 800 µM.
